The values that follow come from patent US20200061062A1, “INHIBITORS OF HUMAN PHOSPHATIDYLINOSITOL 3-KINASE DELTA” (ICOS Corporation, priority 2000, published 2020).

The subject of data set [1] is human neutrophils. Nature of the data set: Elastase exocytosis from neutrophils (fMLP-induced). In kind it is cell-based. To be noted: for EC50: neutrophil (PMN) elastase release. The method, boiled down:
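Human blood neutrophils (Ficoll-Hypaque) treated with compound or DMSO, then stimulated 90 min at 37 °C with 1 μM fMLP plus 0.01 mg/mL cytochalasin B, 1.0 μM NaN3 and 5 μg/mL L-methionine. Supernatant elastase read at 410 nm over 2 h on MeO-suc-AAPV-pNA, normalized to uninhibited; EC50 in μM.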

The subject of a further data set is MEG-01. The data set can be described thus: Cancer cell proliferation, [3H]-thymidine incorporation, MEG-01. In kind it is cell-based. To be noted: MEG-01 line; 0.001 μM to 20 μM. As for the experimental part: (§1) The effect of compounds of the invention on cancer cell proliferation was evaluated by testing one of the compounds against a panel of Chronic Myeloid Leukemia (CML) cell lines, including KU812, RWLeu4, K562, and MEG-01.
(§2) The inhibitory activity of the compound (D-000, dissolved in DMSO) was determined as follows. The tested compound was added in a series of concentrations (0.001 μM to 20 μM) to 96-well microtiter plates with cells (1000 to 5000 cells/well). Plates were incubated for five days at 37° C. during which the control cultures without test compound were able to undergo at least two cell-division cycles. Cell growth was measured by incorporation of [^3H]-thymidine for eighteen hours added at days three, four, and five. Cells were transferred to a filter, washed and the radioactivity counted using a Matrix 96 beta counter (Packard). The percentage of cell growth was measured as follows: […]
On the technique in general: Uptake of a labelled nucleoside into DNA is a usual measure of proliferation.

For a further data set, the system named is osteoclasts. Nature of the data set: Osteoclast function, pit depths on dentine slices. In kind it is cell-based, mouse. As for the experimental part: To analyze the effect of the PI3Kδ inhibitor D-000 on osteoclasts, mouse bone marrow cells were isolated and differentiated them to osteoclasts by treating the cells with Macrophage Colony Stimulating Factor^−1 (mCSF^−1) and Osteoprotegerin Ligand (OPGL) in serum-containing medium (αMEM with 10% heat-inactivated FBS; Sigma) for 3 days. On day four, when the osteoclasts had developed, the medium was removed and cells were harvested. The osteoclasts were plated on dentine slices at 10^5 cells/well in growth medium, i.e., αMEM containing 1% serum and 2% BSA with […] and 10 ng/mL mCSF-1. After 3 hr, the medium was changed to 1% serum and 1% BSA, with or without osteopontin (25 μg/mL) and the PI3K inhibitors (100 nM). The medium was changed every 24 hours with fresh osteopontin and the inhibitors. At 72 hr, the medium was removed, and the dentine surfaces were washed with water to remove cell debris and stained with acid hematoxylin. Excess stain was washed and the pit depths were quantitated using confocal microscopy.

The next data set has as its system K562. Nature of the data set: Cancer cell proliferation, [3H]-thymidine incorporation, K562. To be noted: K562 line; 0.001 μM to 20 μM. In kind it is cell-based. The protocol: as §1, §2
Data set [2] relates to human neutrophils. Nature of the data set: Bactericidal capacity of neutrophils (Staphylococcus aureus killing). In kind it is cell-based. To be noted: FIG. 6; versus DMSO control. The source says:
Given that the PI3Kδ inhibitor D-000 affects certain neutrophil functions detailed above, it was of interest to see whether the compound affects neutrophil-mediated bacterial killing. The effect of D-000 on neutrophil-mediated Staphylococcus aureus killing was studied according to the method described by Clark and Nauseef (pp. 7.23.4-7.23.6 in Vol. 2, Supp. 6, Curr Protocols Immunol (Eds., Colligan et al.) (1994)). Purified human neutrophils (5×10^6 cells/mL) (treated with either DMSO or a serial dilution of D-000 in DMSO) were mixed with autologous serum. Overnight-grown S. aureus cells were washed, resuspended in HBSS, and added to the serum-opsonized neutrophils at a 10:1 ratio. Neutrophils were allowed to internalize the bacteria by phagocytosis by incubation at 37° C. for 20 min. The noninternalized bacteria were killed by 10 units/mL lysostaphin at 37° C. for 5 min and the total mixture was rotated at 37° C. Samples were withdrawn at various times for up to 90 min and the neutrophils were lysed by dilution in water. Viable bacteria were counted by plating appropriate dilutions on trypticase-soy-agar plate and counting the S. aureus colonies after overnight growth.

Turning to `O=c1c2c(Cl)cccc2nc(CSc2ncnc3[nH]cnc23)n1-c1ccccc1Cl` [Compound D-025, 5-Chloro-3-(2-chlorophenyl)-2-(9H-purin-6-ylsulfanylmethyl)-3H-quinazolin-4-one], the melting point is 233.7 to 234.4 °C (dec.). This molecule also registered an EC50 in the data set on human neutrophils [1] of 300 ± 200 nM.
For `O=c1c2ccccc2nc(CSc2ncnc3[nH]ncc23)n1-c1ccccc1Cl` [Compound D-999, 3-(2-Chlorophenyl)-2-(1H-pyrazolo[3,4-d]pyrimidin-4-ylsulfanylmethyl)-3H-quinazolin-4-one, reference compound], the EC50 in the data set with human neutrophils [1] is above 20000 nM.
The molecule `O=c1c2c(F)cccc2nc(CSc2ncnc3[nH]cnc23)n1-c1ccccc1Cl` [Compound D-015, 3-(2-Chlorophenyl)-5-fluoro-2-(9H-purin-6-ylsulfanylmethyl)-3H-quinazolin-4-one] gave a melting point of 222.7 to 223.8 °C. This molecule also returned an EC50 with human neutrophils [1] of 1300 ± 400 nM.
As to `O=c1c2ccccc2nc(CSc2ncnc3[nH]cnc23)n1-c1ccccc1Cl` [Compound D-000, 3-(2-chlorophenyl)-2-(9H-purin-6-ylsulfanylmethyl)-3H-quinazolin-4-one], the “Effect on cell growth” value in the data set with MEG-01 and in the data set with K562 was “not found to exhibit an effect” throughout. The “Effect on osteoclast activity” value in the data set on osteoclasts (100 nM) is given as “almost completely inhibited”. Moreover, in the data set on osteoclasts (inhibitor 100 nM + osteopontin (OPN) 25 μg/mL, 72 hr, two experiments, OPN alone 10 ± 0.5 and 9 ± 0.4), the “Pit depths (osteoclast activity), Table 1” value is given as 1. In the data set on human neutrophils [1] (Neutrophil, 1.5 h, 1 μM fMLP, 90 min, FIG. 4, read-out: Concentration of half-maximal inhibition of fMLP-induced elastase exocytosis), the IC50 was 2000 to 3000 nM. Further, the EC50 in the data set on human neutrophils [1] was determined as 2200 ± 2000 nM. Moreover, the “Effect on neutrophil-mediated killing of S. aureus” value in the data set on human neutrophils [2] is recorded as “does not significantly affect”.

For orientation: melting point means the temperature of the solid-liquid transition. A word on the EC50: it is the concentration at which the effect is half-maximal. A lower EC50 goes with a more potent agent.
